Results published in ChEMBL document CHEMBL1150568, “Briaexcavatolides K-N, new briarane diterpenes from the gorgonian Briareum excavatum” (2001).
In brackets after ≈: the same amount, converted by molar mass. Activity calls are given as the source filed them. The rule behind the calls is not given here.

What was measured:
P388 = test: Cytotoxicity against mouse P388 cells by tetrazolium-based colorimetric assay; format: functional; conditions: for EC50: read-out: ED50 (the source's name)
A549 = test: Cytotoxicity against human A549 cells by tetrazolium-based colorimetric assay; format: functional, cell-based
HT-29 = test: Cytotoxicity against human HT-29 cells by tetrazolium-based colorimetric assay; format: functional

## CC(=O)O[C@H]1C/C(C)=C\[C@@H]2OC(=O)[C@](C)(O)[C@]2(O)[C@H](OC(C)=O)[C@H]2[C@@H](C)[C@@H](O)C[C@H](OC(C)=O)[C@]2(C)[C@H]1OC(C)=O
P388
  Activity: inactive
A549
  Activity: inactive
HT-29
  Activity: inactive

## CC(=O)O[C@H]1CC/C(CO)=C\[C@@H]2OC(=O)[C@@]3(C)O[C@]23[C@H](O)[C@H]2[C@@H](C)[C@H](OC(C)=O)C=C[C@@]21C (relative stereo)
P388
  EC50: 0.4 µg/mL (≈ 0.861 µM)
HT-29; read-out: ED50 (the source's name)
  EC50: 1.1 µg/mL (≈ 2.37 µM)

## CCCC(=O)O[C@H]1C/C(C)=C\[C@@H]2OC(=O)[C@](C)(O)[C@]2(O)[C@H](OC(C)=O)[C@H]2[C@@H](C)[C@@H](O)C[C@H](OC(C)=O)[C@]2(C)[C@H]1OC(C)=O [BRIAEXCAVATOLIDE L]
P388
  EC50: 0.5 µg/mL (≈ 0.816 µM)

## CC(=O)O[C@@H]1[C@H](C)[C@@H]2[C@@H](OC(C)=O)[C@@]3(O)[C@H](/C=C(CO)\C=C/[C@H](O)[C@@]2(C)[C@H]2O[C@@H]12)OC(=O)[C@@H]3C
P388
  Activity: inactive
A549
  Activity: inactive
HT-29
  Activity: inactive

## CC(=O)O[C@@H]1[C@H](C)[C@@H]2[C@@H](OC(C)=O)[C@@]3(O)[C@H](/C=C(CCl)\C=C/[C@H](O)[C@@]2(C)[C@H]2O[C@@H]12)OC(=O)[C@@H]3C
P388
  Activity: inactive
A549
  Activity: inactive
HT-29
  Activity: inactive
